Test results as given in US20250326769A1, “HETEROAROMATIC MACROCYCLIC ETHER CHEMOTHERAPEUTIC AGENTS” (Nuvalent, Inc., priority 2022, published 2025).
pIC50: −log10 of the molar value.

Assays:
[1] = molecular target: Ba/F3 EML4-ALK v1 I1171N/D1203N (Homo sapiens (Human), UniProt Q9HC35+Q9UM73, D1203N/I1171N); test: Ba/F3 cell proliferation assay, EML4-ALK v1 I1171N/D1203N; assay type: cell-based; conditions: for pIC50: Ba/F3 stable cells, 72 hours, CellTiter-Glo; for ETV6-TRKB / EML4-ALK v1 I1171N/D1203N / Selectivity for Ba/F3 EML4-ALK v1 I1171N-D1203N IC50 over Ba/F3 ETV6-TRKB IC50: TRKB selectivity, ratio of Ba/F3 IC50 values; for Selectivity for Ba/F3 EML4-ALK v1 I1171N-D1203N IC50 over Ba/F3 ETV6-TRKB IC50: Table 6 bins
Source text: (§1) Genes encoding EML4-ALK v1 (variant 1), EML4-ALK v1 G1202R, EML4-ALK v1 I1171IN, EML4-ALK v1 D1203N, EML4-ALK v1 I1171N/D1203N, and ETV6-TRKB were synthesized at GeneRay, cloned into the retroviral construct pMSCV-puro (Biovector), and packaged into retroviral particles. The virus was used to infect Ba/F3 cells (RIKEN) at multiplicity of infection=1 for 1 day. Infected cells were rescued in media (RPMI-1640 with 10% fetal bovine serum and 1% streptomycin and penicillin) supplemented with mouse IL-3 (10 ng/mL) for 2 days, and stable cell lines were selected by IL-3 withdrawal and puromycin (0.8 μg/mL) for 7 days. Monoclones were selected by single-cell dilution in IL-3-free medium containing puromycin (0.8 μg/mL). Transformation of desired genes was confirmed by Sanger sequencing and western blot using the following antibodies: ALK (CST #3633) and pan-TRK (Abcam #76291).
(§2) Stable cells were plated in a 384-well plate. Test compounds were then added in a 3-fold dilution series and incubated for 72 hours. CellTiter-Glo reagent (Promega) was added. Luminescence was measured on a plate reader. Half-maximal inhibitory concentration (ICso) was calculated from percent inhibition and inhibitor concentration using four-parameter logistic regression. Compound potency can be interpreted by binning IC50 values: bin A for high potency, 0.1 nM IC50<50 nM; bin B for medium potency, 50 nM<IC50<500 nM; and bin C for low potency, IC50>500 nM. […] Exemplary data is given in Table 4 (nd is not determined).
(§3) Ba/F3 proliferation is driven by the transduced oncogenes in the same way that cancer cell proliferation in humans is driven by the expression of equivalent oncogenes.
TRKB selectivity was calculated by dividing a compound's TRKB potency by its primary target potency (e.g., ETV6-TRKB IC50/EML4-ALK v1 IC50). Compound selectivity can be interpreted by binning ratio values: bin A for very high selectivity, ratio≥30-fold; bin B for high selectivity, ratio≥10-fold but<30; bin C for moderate selectivity, ratio≥1 but<10; and bin D for low selectivity, ratio<1. […] (nd=not determined).
Additional exemplified compounds were also tested against ALK-INDN and TRKB. The TRKB selectivity was calculated by dividing a compound's TRKB potency by its primary target potency (e.g., ETV6-TRKB IC50/EMIL4-ALK I1171N-D1203N v1 IC50). Compound selectivity can be interpreted by binning ratio values: bin AA for the selectivity with the ratio≥30-fold; bin BB for the selectivity with the ratio≥10-fold but<30; bin CC for the selectivity with the ratio≥5 but<10; bin DD for the selectivity with the ratio≥1 but<5; and bin EE for the selectivity with the ratio<1.

[2] = molecular target: Ba/F3 ETV6-TRKB (Homo sapiens, UniProt Q16620); test: Ba/F3 cell proliferation assay, ETV6-TRKB; assay type: cell-based; conditions: Ba/F3 stable cells, 72 hours, CellTiter-Glo; read-out: ETV6-TRKB IC50
Source text: as §1, §2, §3

Ba/F3 ETV6-TRKB, sequence (Q16620 32-822 limits assumed, change not shown): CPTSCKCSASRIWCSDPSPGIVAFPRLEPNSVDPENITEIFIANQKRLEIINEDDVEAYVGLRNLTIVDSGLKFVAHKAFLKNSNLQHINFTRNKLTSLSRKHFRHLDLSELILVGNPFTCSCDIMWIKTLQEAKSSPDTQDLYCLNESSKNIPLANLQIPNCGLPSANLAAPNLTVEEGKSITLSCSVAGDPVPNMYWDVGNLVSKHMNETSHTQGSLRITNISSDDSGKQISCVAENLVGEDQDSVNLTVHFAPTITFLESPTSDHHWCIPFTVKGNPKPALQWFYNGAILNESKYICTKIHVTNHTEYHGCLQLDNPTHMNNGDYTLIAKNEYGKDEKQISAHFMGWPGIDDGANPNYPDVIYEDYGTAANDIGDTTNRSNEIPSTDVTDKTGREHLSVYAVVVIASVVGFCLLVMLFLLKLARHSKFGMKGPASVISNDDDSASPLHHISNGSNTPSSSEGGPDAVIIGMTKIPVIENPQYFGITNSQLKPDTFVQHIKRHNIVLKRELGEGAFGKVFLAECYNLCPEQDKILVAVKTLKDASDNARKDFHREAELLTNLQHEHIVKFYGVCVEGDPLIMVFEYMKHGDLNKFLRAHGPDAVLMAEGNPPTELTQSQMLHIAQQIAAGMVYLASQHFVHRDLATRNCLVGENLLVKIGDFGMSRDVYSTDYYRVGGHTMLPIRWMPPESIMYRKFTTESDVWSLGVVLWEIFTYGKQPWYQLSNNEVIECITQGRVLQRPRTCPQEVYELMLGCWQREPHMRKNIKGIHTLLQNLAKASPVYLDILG
Ba/F3 EML4-ALK v1 I1171N/D1203N, sequence (Q9UM73 other isoform, or with tags, fused parts or gaps I1171N/D1203N): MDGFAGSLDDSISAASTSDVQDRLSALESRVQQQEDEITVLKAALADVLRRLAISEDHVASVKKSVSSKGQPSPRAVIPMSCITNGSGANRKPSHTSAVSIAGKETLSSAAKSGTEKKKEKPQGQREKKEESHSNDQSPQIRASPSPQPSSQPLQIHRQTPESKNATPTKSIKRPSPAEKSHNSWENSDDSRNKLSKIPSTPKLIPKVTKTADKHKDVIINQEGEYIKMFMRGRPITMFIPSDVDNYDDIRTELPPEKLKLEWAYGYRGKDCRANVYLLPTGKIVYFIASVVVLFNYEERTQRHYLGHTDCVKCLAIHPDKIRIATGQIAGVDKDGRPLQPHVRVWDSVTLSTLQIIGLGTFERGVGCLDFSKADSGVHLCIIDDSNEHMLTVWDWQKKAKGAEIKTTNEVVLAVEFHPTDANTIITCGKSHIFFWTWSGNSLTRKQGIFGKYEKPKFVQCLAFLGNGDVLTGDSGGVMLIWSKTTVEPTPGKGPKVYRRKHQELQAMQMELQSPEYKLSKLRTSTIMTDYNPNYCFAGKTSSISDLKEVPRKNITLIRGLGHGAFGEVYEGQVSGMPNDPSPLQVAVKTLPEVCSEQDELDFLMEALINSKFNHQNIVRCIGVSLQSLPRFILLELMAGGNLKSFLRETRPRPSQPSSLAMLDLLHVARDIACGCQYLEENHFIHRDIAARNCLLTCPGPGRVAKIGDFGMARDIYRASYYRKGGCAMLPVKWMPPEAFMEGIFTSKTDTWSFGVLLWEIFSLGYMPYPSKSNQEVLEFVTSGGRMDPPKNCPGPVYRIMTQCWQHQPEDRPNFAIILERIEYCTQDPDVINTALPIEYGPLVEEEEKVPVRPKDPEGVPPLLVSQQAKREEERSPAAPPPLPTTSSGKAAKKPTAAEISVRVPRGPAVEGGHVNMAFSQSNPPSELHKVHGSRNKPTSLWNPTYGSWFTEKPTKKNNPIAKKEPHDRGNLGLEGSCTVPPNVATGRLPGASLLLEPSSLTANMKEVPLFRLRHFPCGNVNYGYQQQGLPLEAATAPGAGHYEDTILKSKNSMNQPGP

| Compound | pIC50 [1] | ETV6-TRKB / EML4-ALK v1 I1171N/D1203N [1] | Selectivity for Ba/F3 EML4-ALK v1 I1171N-D1203N IC50 over Ba/F3 ETV6-TRKB IC50 [1] | pIC50 [2] |
| --- | --- | --- | --- | --- |
| C[C@H]1Oc2cc(cnc2N)-c2c(C#N)nn(C)c2C(=O)c2cccnc2-c2c(F)cc(F)cc21 [Example 22, (R)-23-amino-15,17-difluoro-5-methyl-20-methyl-7-oxo-21-oxa-4,5,12,24-tetraazapentacyclo[20.3.1.0^2,^6.0^8,^13.0^14,^19]hexacosa-1(25),2(6),3,8,10,12,14,16,18,22(26),23-undecaene-3-carbonitrile] | 7.30 to 10.00 | A (bin A for very high selectivity, ratio≥30-fold) | AA (bin AA for the selectivity with the ratio≥30-fold) | < 6.30 |
| C[C@H]1Oc2cc(cnc2N)-c2c(CC3CC3)nn(C(=O)N(C)C)c2Cc2cn(C)nc2-c2c(F)cc(F)cc21 [Example 23, (19R)-22-amino-3-(cyclopropylmethyl)-14,16-difluoro-N,N,10,19-tetramethyl-20-oxa-4,5,10,11,23-pentaazapentacyclo[19.3.1.0^2,6.0^8,12.0^13,18]pentacosa-1(24),2(6),3,8,11,13,15,17,21(25),22-decaene-5-carboxamide] | 6.30 to 7.30 | A (bin A for very high selectivity, ratio≥30-fold) |  | < 6.30 |
| CCc1nn(C(=O)N(C)C)c2c1-c1cnc(N)c(c1)O[C@H](C)c1cc(F)ccc1-c1ncccc1C2 [Example 24, (R)-5-(N,N-dimethylcarbamoyl)-3-ethyl-17-fluoro-20-methyl-21-oxa-4,5,12,24-tetraazapentacyclo[20.3.1.0^2,^6.0^8,^13.0^14,^19]hexacosa-1(25),2(6),3,8(13),9,11,14,16,18,22(26),23-undecaen-23-ylamine] | 7.30 to 10.00 | C (bin C for moderate selectivity, ratio≥1 but<10) |  | 7.30 to 10.00 |
| C[C@H]1Oc2cc(cnc2N)-c2c(C#N)nn(C)c2C(=O)c2cccnc2-c2ccc(F)cc21 [Example 25, (R)-23-amino-17-fluoro-5-methyl-20-methyl-7-oxo-21-oxa-4,5,12,24-tetraazapentacyclo[20.3.1.0^2,^6.0^8,^13.0^14,^19]hexacosa-1(25),2(6),3,8(13),9,11,14,16,18,22(26),23-undecaene-3-carbonitrile] | 7.30 to 10.00 | A (bin A for very high selectivity, ratio≥30-fold) | AA (bin AA for the selectivity with the ratio≥30-fold) | < 6.30 |
| C[C@H]1Oc2cc(cnc2N)-c2c(C#N)nn(C)c2C(=O)c2cn(C)nc2-c2c(F)cc(F)cc21 [Example 28, (R)-22-amino-14,16-difluoro-5,10-dimethyl-19-methyl-7-oxo-20-oxa-4,5,10,11,23-pentaazapentacyclo[19.3.1.0^2,^6.0^8,^12.0^13,^18]pentacosa-1(24),2(6),3,8,11,13,15,17,21(25),22-decaene-3-carbonitrile] | 6.30 to 7.30 | A (bin A for very high selectivity, ratio≥30-fold) |  | < 6.30 |
| CC(C)N(C)C(=O)c1nn(CC2CC2)c2c1Cc1cn(C)nc1-c1ccc(F)cc1[C@@H](C)Oc1cc-2cnc1N [Example 37, N-isopropyl-N-methyl-(R)-22-amino-3-(cyclopropylmethyl)-16-fluoro-10-methyl-19-methyl-20-oxa-3,4,10,11,23-pentaazapentacyclo[19.3.1.0^2,^6.0^8,^12.0^13,^18]pentacosa-1(24),2(6),4,8,11,13,15,17,21(25),22-decaene-5-carboxamide] | 6.30 to 7.30 |  |  | < 6.30 |
| C[C@H]1Oc2cc(cnc2N)-c2c(nn(C)c2C#N)Oc2cccnc2-c2ccc(F)cc21 [Example 59, (R)-23-amino-17-fluoro-4-methyl-20-methyl-7,21-dioxa-4,5,12,24-tetraazapentacyclo[20.3.1.0^2,^6.0^8,^13.0^14,^19]hexacosa-1(25),2,5,8(13),9,11,14,16,18,22(26),23-undecaene-3-carbonitrile] | 7.30 to 10.00 | B (bin B for high selectivity, ratio≥10-fold but<30) |  | 6.30 to 7.30 |
| C[C@H]1Oc2cc(cnc2N)-c2c(nn(C)c2C#N)Oc2cccnc2-c2c(F)cc(F)cc21 [Example 61, (R)-23-amino-15,17-difluoro-4-methyl-20-methyl-7,21-dioxa-4,5,12,24-tetraazapentacyclo[20.3.1.0^2,^6.0^8,^13.0^14,^19]hexacosa-1(25),2,5,8(13),9,11,14,16,18,22(26),23-undecaene-3-carbonitrile] | 7.30 to 10.00 |  |  | 6.30 to 7.30 |
| C[C@H]1Oc2cc(cnc2N)-c2c(nn(C)c2C#N)Cc2cccnc2-c2c(F)cc(F)cc21 [Example E1, reference compound] |  |  | BB (bin BB for the selectivity with the ratio≥10-fold but<30) |  |
| C[C@H]1Oc2cc(cnc2N)-c2c(C#N)nn(C)c2Cc2cccnc2-c2c(F)cc(F)cc21 [Example E2, reference compound] |  |  | DD (bin DD for the selectivity with the ratio≥1 but<5) |  |
| Cc1cc2n(n1)-c1ccc(F)cc1[C@@H](C)Oc1cc(cnc1N)-c1c(C#N)nn(C)c1C2 [Example E3, reference compound] |  |  | EE (bin EE for the selectivity with the ratio<1) |  |
| CCn1ncc2c1-c1cnc(N)c(c1)O[C@H](C)c1cc(F)ccc1-c1nn(C)cc1C2 [Example E4, reference compound] |  |  | EE (bin EE for the selectivity with the ratio<1) |  |
| CC(C)n1nc2c(c1C#N)-c1cnc(N)c(c1)O[C@H](C)c1cc(F)ccc1-c1ncccc1C2 [Example E5, reference compound] |  |  | CC (bin CC for the selectivity with the ratio≥5 but<10) |  |
| Cc1nc2c(s1)Cc1c(c(C#N)nn1C)-c1cnc(N)c(c1)O[C@H](C)c1cc(F)ccc1-2 [Example E6, reference compound] |  |  | EE (bin EE for the selectivity with the ratio<1) |  |
| C[C@H]1Oc2cc(cnc2N)-c2c(nn(C)c2C#N)Cc2cccnc2-c2ccc(F)cc21 [Example E7, reference compound] |  |  | CC (bin CC for the selectivity with the ratio≥5 but<10) |  |
| C[C@H]1Oc2cc(cnc2N)-c2c(C#N)nn(C)c2Cc2cccnc2-c2ccc(F)cc21 [Example E8, reference compound] |  |  | DD (bin DD for the selectivity with the ratio≥1 but<5) |  |
| CCn1ncc2c1-c1cnc(N)c(c1)O[C@H](C)c1cc(F)ccc1-c1ncccc1C2 [Example E10, reference compound] |  |  | EE (bin EE for the selectivity with the ratio<1) |  |
| C[C@H]1Oc2cc(cnc2N)-c2c(cnn2CC2CC2)Cc2cccnc2-c2ccc(F)cc21 [Example E11, reference compound] |  |  | DD (bin DD for the selectivity with the ratio≥1 but<5) |  |
| CCn1nc2c(c1C#N)-c1cnc(N)c(c1)O[C@H](C)c1cc(F)ccc1-c1ncccc1C2 [Example E12, reference compound] |  |  | CC (bin CC for the selectivity with the ratio≥5 but<10) |  |
| C[C@H]1Oc2cc(cnc2N)-c2c(nn(C)c2C#N)Cc2cn(C)nc2-c2c(F)cc(F)cc21 [Example E13, reference compound] |  |  | BB (bin BB for the selectivity with the ratio≥10-fold but<30) |  |
